Reference: patent publication US10344279B2, “Methods for the prevention and the treatment of extracapillary glomerulonephritis” (INSERM (Institut National de la Sante et de la Recherche …, priority 2014, dated 2019)

How the values were obtained:
primary podocytes = test: Podocyte outgrowth (proliferation) assay from isolated decapsulated glomeruli; assay type: cell-based, mouse; settings: for podocyte outgrowth area / proliferation of cultured primary podocytes: Pod-Stat3 WT podocytes treated with Stattic, quantified at day 4
Protocol: Mouse kidneys were extracted, minced, and digested in 2 mg/mL collagenase I solution (Gibco) in RPMI 1640 (Invitrogen) at 37° C. for 3 minutes, then filtered through a 70-μm cell strainer and one more through a 40-μm cell strainer. The homogenate was centrifuged at 720 g for 6 minutes and cells plated. Isolated glomeruli were then collected in Phosphosafc extraction buffer (Novagen) for protein extraction or in RLT extraction buffer (Qiagen) for total RNA extraction. For podocyte primary culture, freshly isolated glomeruli were plated in 6-plate dishes in RPMI 1640 (Invitrogen) supplemented by 10% Fetal Calf Serum (Biowest) and 1% penicillin-streptomycin (Invitrogen). The outgrowth of podocytes started between days 2 and 3. Podocyte outgrowth area was quantified at day 4 using ImageJ software. After 4 days of primary culture, podocytes were trypsinized then plated into μ-Dish 35 mm high with Culture-Insert (Ibidi). Ibidi's wounding inserts were used for cell migration studies. The coverage of the 500-μm gap was assessed after 12 hours of culture and podocyte migration area was quantified using ImageJ software. The effects of HB-EGF (10 ng/mL, Preprotech) or AG1478 (1 μM, Calbiochem) or anti-mIL-6 monoclonal antibody MP5-20F3 (10 μg/mL, eBiosciences) or Stattic (2 μM, Calbiochem) on differentiated podocytes was applied during 16 hours. After stimulation, podocytes were scrapped in Phosphosafe buffer for protein extraction or in RLT buffer for total RNA extraction. […] Anti-miR-Control#1 was used as control (All from Ambion, 50 nM).

[1] = system: Ki67 and PCNA mRNA expression in primary podocytes; test: RT-PCR of proliferation markers Ki67 and PCNA in primary podocyte cultures; assay type: cell-based, mouse
Protocol: After 4 days of primary culture, podocytes were trypsinized then plated into μ-Dish 35 mm high with Culture-Insert (Ibidi). Ibidi's wounding inserts were used for cell migration studies. The coverage of the 500-μm gap was assessed after 12 hours of culture and podocyte migration area was quantified using ImageJ software. The effects of HB-EGF (10 ng/mL, Preprotech) or AG1478 (1 μM, Calbiochem) or anti-mIL-6 monoclonal antibody MP5-20F3 (10 μg/mL, eBiosciences) or Stattic (2 μM, Calbiochem) on differentiated podocytes was applied during 16 hours. After stimulation, podocytes were scrapped in Phosphosafe buffer for protein extraction or in RLT buffer for total RNA extraction. Total RNA extraction of mice glomeruli was performed using an Rneasy Minikit (Qiagen) and reverse transcribed into cDNA using the Quantitect Reverse Transcription kit (Qiagen) according to the manufacturer's protocol. cDNA and standard were amplified in Maxima SYBR Green/Rox qPCR mix (Fermentas) on an ABI PRISM thermo cycler. The comparative method of relative quantification (2-ΔΔCT) was used to calculate the expression level of each target gene, normalized to GAPDH. The oligonucleotide sequences are available upon request. The data are presented as the fold change in gene expression. […] Anti-miR-Control#1 was used as control (All from Ambion, 50 nM).

miR-92a = miR-92a expression in kidney / isolated glomeruli of NTS-challenged mice (in situ hybridization, RT-qPCR); assay type: in vivo
Protocol: The glomerulonephritis was induced on male mice (10-12 weeks of age) by intravenous injection of 15 μL of sheep anti-glomerular basement membrane (GBM) nephrotoxic serum (NTS), which was diluted with 85 μL of sterile phosphate buffer solution. Serum injections were repeated twice (on days 2 and 3) at 6 μL/g of body weight and 7 μL/g respectively.
For miRNA expression analysis, RNA from kidney cortex were prepared with Trizol (Life Technologies) according to manufacturer's instructions. miRNA expression was determined using Taqman miRNA assay (Life technologies) according to manufacturer's protocols. U6 snRNA was used as endogenous control.
In situ hybridization was performed as previously described by Bonaucr et al (66). Briefly, 5 μm-thick kidney paraffin embedded sections were cut and fixed in PFA 4% for 10 min. Then sections were washed with 1× PBS and then acetylated for 10 min. After washes, sections were incubated with […] (Sigma-Aldrich) for 10 min. at 37° C. After washings, sections were incubated with hybridization buffer for 5 h at room temperature. miRNA probes (miR-92a probe double-DIG labeled LNA probes, Exiqon, final concentration 20 nM) was mixed with denaturation buffer and added to the sections followed by incubation over night at 56° C. U6snRNA probe (3′-DIG labeled LAN, probe, Exiqon) was used at 10 nM final concentration and as a positive control. […]

Molecule | podocyte outgrowth (primary podocytes; anti-miR-92a transfected (50 nM), over 4 days, vs control cells or anti-miR control) | Ki67 mRNA level ([1]; anti-miR-92a transfected (50 nM) primary podocytes, vs control cells or anti-miR control) | miR-92a expression in isolated glomeruli during RPGN (miR-92a; antagomiR 12 mg/kg i.v. retro-orbital, preventive strategy, 10 days after NTS) | podocyte outgrowth area / proliferation of cultured primary podocytes (primary podocytes) | podocyte outgrowth area / proliferation of cultured primary podocytes (primary podocytes; listed as STAT3 inhibitor) | Ki67 expression in primary podocytes ([1]; Stattic 2 μM for 16 hours) | PCNA expression in primary podocytes ([1]; Stattic 2 μM for 16 hours) | MicroRNA-92a expression in kidney (miR-92a; NTS-challenged Pod-Stat3 WT animals treated with Stattic, in situ hybridization, confirmed by RT-qPCR)
anti-miR-92a: 2′O-methylated, end-phosphorothioated antagomir with 3′ cholesterol-TEG, SEQ ID NO: 8, 5′-CAGGCCGGGACAAGUGCAAUA-3′ (VBC biotech) (listed as RNA, chemistry not fully specified) | decrease | decrease | specific inhibition | – | – | – | – | –
O=[N+]([O-])c1ccc2c(c1)S(=O)(=O)C=C2 [Stattic] | – | – | – | inhibited | significantly reduced | markedly blunted | markedly blunted | not increased
